Data taken from patent publication US11981944B2, “Immunogenic arginase peptides” (IO Biotech ApS, priority 2016, dated 2024).

Legend:
[1] = tested on: peripheral blood mononuclear cells (PBMC); assay: IFN-gamma ELISPOT secretion assay on PBMC (Example 1); format: cell-based, human; details: PBMC from three cancer patients; FIG. 3
[2] = tested on: PBMCs from healthy donors or cancer patients; assay: IFNγ ELISPOT on PBMCs after one week peptide and IL-2 stimulation (Example 2); format: cell-based, human; details: for spontaneous IFNγ ELISPOT responses against 20-mer library peptides: cancer (melanoma) patient PBMCs, FIG. 9A
Method: PBMCs from healthy donors or cancer patients were stimulated with 80 μg of arginase-derived peptides and 120 U/ml IL-2 (Peprotech, London, UK, cat. 200-02) for a week. 4-6×10^5 PBMCs were then placed in the bottom of ELISPOT plate (nitrocellulose bottomed 96-well plates by MultiScreen MAIP […]; Millipore, cat. MSIPN4W50) pre-coated with IFN-y capture Ab (Mabtech, cat. 3420-3-1000) and 1-10 μg of arginase derived peptides were added. PBMCs from each patient and donors were set up in duplicates or triplicates for peptide and control stimulations. Cells were incubated in ELISPOT plates in the presence of an antigen for 14-16 hours after which they are washed off and secondary biotinylated Ab (Mabtech, cat. 3420-6-1000) was added. After 2 h incubation unbound secondary antibody was washed off and streptavidin conjugated alkaline phosphatase (AP) (Mabtech, cat. 3310-10) was added for 1 h. Next, unbound conjugated enzyme is washed off and the assay is developed by adding BCIP/NBT substrate (Mabtech, cat. 3650-10). Developed ELISPOT plates were analysed on CTL ImmunoSpot S6 Ultimate-V analyzer using Immunospot software v5.1. Responses were calculated as the difference between average numbers of spots in wells stimulated with Arginase-1 peptides and control wells. We divided the entire arginase-1 protein sequence into overlapping 20-amino-acid-long peptides, generating a library of 31 peptides covering the whole sequence (SEQ ID NOs 18-48)). Each peptide in the library overlapped with the first 10 amino acids of the following peptide. Using this arginase peptide library and the IFNγ ELISPOT assay, we next screened PBMCs from melanoma patients and healthy donors for spontaneous responses (FIGS. 9A and 9B). The PBMCs were stimulated for one week with a pool of 3-4 adjacent 20-mer arginase library peptides and low-dose IL-2 (120 U/mL). They were then set up for an IFNγ ELISPOT assay to screen for responses against each 20-mer peptide separately. […] Among these overlapping peptides, […]-200), and Arg(191-210) spanned a 50-amino-acid-long region that was deemed a hot-spot region since nearly all patients harbored a response against one or more of these peptides (FIG. 9A). The selected eight peptides were further used to screen for spontaneous immune responses against arginase-1 in PBMCs from eight healthy donors using IFNγ ELISPOT. […] Since we most frequently observed responses against arginase-1 peptides from the hot-spot region, we next analyzed whether longer peptides covering the same sequence could be used instead of four 20-mers. […] We then divided the arginase-1 hot-spot region into two 30-mer peptides that overlapped by 10 amino acids (peptides labelled by reference to start and end position): […]-190) and […]-210). These 30-mer peptides were used to check for responses in selected PBMCs from cancer patients and healthy donors, which had previously shown responses against the 20-mer hot-spot peptides. The PBMCs were stimulated for one week with either […]-190) or […]-210) in the presence of IL-2, and were then used in IFNγ ELISPOT.

[3] = tested on: TILs from eight melanoma patients; assay: Intracellular staining for IFNγ and TNFα release in melanoma TILs; format: cell-based, human; details: for IFNγ or TNFα release from CD8+ T cells: TILs; for IFNγ or TNFα release from CD8+ T cells / IFNγ release from CD4+ T cells: 5 h peptide stimulation; for IFNγ release from CD4+ T cells: one of the TIL cultures, FIG. 10A
Method: Flow cytometry analysis was performed on a FACSCantoTM II (BD Biosciences, San Jose CA, USA). Intracellular staining of cell cultures was performed after the cells were stimulated with 20-mere peptides for 5 hours or 30-mere peptides for 8h (BD GolgiPlugTM cat. 555029, was added after the first hour). The cells were then stained for surface markers, then washed and permeabilized by using Fixation/Permeabilization and Permeabilization Buffer (eBioscience, cat. 00-5123-43), according to manufacturer's instructions. Antibodies used: IFNγ-APC (cat. 341117), TNFα-BV421 (cat. 562783), CD4-FITC (cat. 347413), CD8-PerCP (cat. 345774) (all from BD Biosciences). Dead cells were stained using FVS510 (564406, BD Biosciences) according to manufacturer's instructions. To investigate the potential presence of arginase-specific T cells among tumor-infiltrating lymphocytes in cancer, we screened TILs from eight melanoma patients for responses against arginase-1 derived peptides. To this end, we performed intracellular staining for IFNγ and TNFα release in response to peptide stimulation. TILs were thawed and rested overnight without IL-2, and then stimulated for 5 h with three hot-spot immunogenic region 20-mer peptides (peptides labelled by reference to start and end position): […]-200). […] The percentage of IFNγ-producing cells was higher for […]-190) and […]-200) compared to […]-180), and the response against […]-200) was almost twice that against […]-180).

[4] = tested on: CT26.WT colon cancer cells; assay: Tumor vaccination of Balb/c mice bearing CT26.WT tumors; format: in vivo, mouse; details: for tumor growth relative to vaccination with control peptide: vaccination day6 and day 13, FIG. 16
[5] = tested on: C57BL/6 and Balb/c mice; assay: Peptide vaccination of mice and IFNgamma ELISPOT of spleen or dLN cells; format: in vivo, mouse; details: 100 μg peptide s.c. day0 and day7
Method: Animals were vaccinated subcutaneously with 100 μg peptide in DMSO/H2O in a 1:1 emulsion with incomplete Freund's adjuvant (IFA) or montanide. IFA+DMSO/H2O served as a control vaccine. Vaccinations were carried out on day0 and day7. For subsequent analysis of the immune response to specific peptides, mice were sacrificed on day 14 and spleen and draining lymph nodes (dLNs) were harvested.
Murine immune cells were subjected to ELISPOT analysis. Single cell suspension was prepared from spleen or dLNs by passage through a cell strainer. After lysis of red blood cells, 0.9×10E6 cells/well were seeded into ELISPOT plates coated with anti-IFNgamma antibody. Peptide of interest was added to designated wells and cells were incubated o/n with peptide. The next day, cells were removed, plates washed and incubated with biotinylated detection antibody. Finally, after addition of Streptavidin-ALP and substrate visible spots appear. Each spot corresponds to an individual IFNgamma producing cell. Plates were analysed in an Immunospot analyser and plotted as spots/0.9×10E6 cells minus background (i.e. minus number of spots in corresponding unstimulated (no peptide) wells).

[6] = CD4+ T cells in TILs, 5 h stimulation

Sequence: LRKAGLLEKLKEQECDVKDY (Peptide fragment of human Arginase 1) [Arg1-4, positions 31-50 of human Arginase 1]
- immune responses against overlapping 20mer peptides [1]: Frequent immune responses were detected
- spontaneous IFNγ ELISPOT responses against 20-mer library peptides [2]: highest and most abundant responses

Sequence: DVDPGEHYILKTLGIKYFSMTEVDRLGIGK (Peptide fragment of human Arginase 1) [Arg(181-210), 30-mer, positions 181-210 of human Arginase 1]
- IFNγ ELISPOT responses against longer hot-spot peptides ([2]; selected PBMCs from cancer patients and healthy donors, one week stimulation with IL-2, FIG. 10B, 10C): lower than those against the overlapping 20-mer peptides

Sequence: GRKKRPIHLSFDVDGLDPSF (Peptide fragment of human Arginase 1) [Arg1-23, positions 221-240 of human Arginase 1]
- immune responses against overlapping 20mer peptides [1]: Frequent immune responses were detected
- spontaneous IFNγ ELISPOT responses against 20-mer library peptides [2]: highest and most abundant responses

Sequence: TEEIYKTGLLSGLDIMEVNP (Peptide fragment of human Arginase 1) [Arg1-27, positions 261-280 of human Arginase 1]
- immune responses against overlapping 20mer peptides [1]: Frequent immune responses were detected
- spontaneous IFNγ ELISPOT responses against 20-mer library peptides [2]: highest and most abundant responses

Sequence: AKDIVYIGLRDVDPGEHYIL (Peptide fragment of human Arginase 1) [Arg1-18, positions 171-190 of human Arginase 1]
- immune responses against overlapping 20mer peptides [1]: Frequent immune responses were detected
- spontaneous IFNγ ELISPOT responses against 20-mer library peptides [2]: highest and most abundant responses
- percentage of IFNγ-producing cells compared to Arg(161-180) [3, 6]: higher
- IFNγ or TNFα release from CD8+ T cells [3]: No IFNγ or TNFα release was observed
- IFNγ release from CD4+ T cells [3]: IFNγ was released from CD4+ T cells

Sequence: KTLGIKYFSMTEVDKLGIGK (Peptide fragment of murine Arginase 1) [mARG20, positions 191-210 of murine Arginase 1]
- size of the tumor growth effect among the tested peptides [4]: most noticeable
- tumor growth relative to vaccination with control peptide [4]: inhibit tumor growth
- immunogenicity (peptide specific IFNgamma ELISPOT response) ([5]; Balb/c mice, FIG. 15): immunogenic
- immunogenicity (peptide specific IFNgamma ELISPOT response) ([5]; C57BL/6 mice, FIG. 14): immunogenic

Sequence: LGIKYFSM (Peptide fragment of human Arginase 1) [mARG2, positions 193-200 of human Arginase 1; murine region identical]
- immunogenicity (peptide specific IFNgamma ELISPOT response) ([5]; Balb/c mice, FIG. 15): not immunogenic
- immunogenicity (peptide specific IFNgamma ELISPOT response) ([5]; C57BL/6 mice, FIG. 14): not immunogenic

Sequence: HARVHPDLGVIWVDAHTDIN (Peptide fragment of human Arginase 1) [Arg1-12, positions 111-130 of human Arginase 1]
- immune responses against overlapping 20mer peptides [1]: Frequent immune responses were detected
- spontaneous IFNγ ELISPOT responses against 20-mer library peptides [2]: highest and most abundant responses

Sequence: KDIVYIGL (Peptide fragment of human Arginase 1) [mARG1, positions 172-179 of human Arginase 1; murine region identical]
- immunogenicity (peptide specific IFNgamma ELISPOT response) ([5]; C57BL/6 mice, FIG. 14): immunogenic

Sequence: KTLGIKYFSMTEVDRLGIGK (Peptide frgment of human Arginase 1) [Arg1-20, positions 191-210 of human Arginase 1]
- immune responses against overlapping 20mer peptides [1]: Frequent immune responses were detected
- spontaneous IFNγ ELISPOT responses against 20-mer library peptides [2]: highest and most abundant responses

Sequence: DVDPGEHYILKTLGIKYFSM (Peptide frgment of human Arginase 1) [Arg1-19, positions 181-200 of human Arginase 1]
- size of the tumor growth effect among the tested peptides [4]: most noticeable
- tumor growth relative to vaccination with control peptide [4]: inhibit tumor growth
- immunogenicity (peptide specific IFNgamma ELISPOT response) ([5]; Balb/c mice, FIG. 15): immunogenic
- immunogenicity (peptide specific IFNgamma ELISPOT response) ([5]; C57BL/6 mice, FIG. 14): immunogenic
- immune responses against overlapping 20mer peptides [1]: Frequent immune responses were detected
- spontaneous IFNγ ELISPOT responses against 20-mer library peptides [2]: highest and most abundant responses
- percentage of IFNγ-producing cells compared to Arg(161-180) [3, 6]: higher
- response relative to that against Arg(161-180) [3, 6]: almost twice that against Arg(161-180)
- IFNγ or TNFα release from CD8+ T cells [3]: No IFNγ or TNFα release was observed
- IFNγ release from CD4+ T cells [3]: IFNγ was released from CD4+ T cells

Sequence: GFSWVTPCISAKDIVYIGLR (Peptide fragment of human Arginase 1) [Arg1-17, positions 161-180 of human Arginase 1; murine region identical]
- tumor growth relative to vaccination with control peptide [4]: inhibit tumor growth
- immunogenicity (peptide specific IFNgamma ELISPOT response) ([5]; Balb/c mice, FIG. 15): immunogenic
- immunogenicity (peptide specific IFNgamma ELISPOT response) ([5]; C57BL/6 mice, FIG. 14): immunogenic
- immune responses against overlapping 20mer peptides [1]: Frequent immune responses were detected
- spontaneous IFNγ ELISPOT responses against 20-mer library peptides [2]: highest and most abundant responses
- IFNγ or TNFα release from CD8+ T cells [3]: No IFNγ or TNFα release was observed
- IFNγ release from CD4+ T cells [3]: IFNγ was released from CD4+ T cells
